{"source": "patent US20250333745A1", "about": "“METHODS AND COMPOSITIONS FOR TREATMENT OF POLYCYSTIC KIDNEY DISEASE” (Regulus Therapeutics Inc., priority 2016, published 2025)", "system": "Pcy mice", "assay": "Previous study of tool anti-miR-17 in Pcy mice", "assay_type": "in vivo, mouse", "conditions": "50 mg/kg once weekly for 26 weeks", "procedure": "Previous studies using a research tool anti-miR-17 compound identified a role for miR-17 in PKD in two different models of PKD, the Pkd2-KO model (also known as the Pkhd1/cre; Pkd2^F/F model) and the Pcy model. The research tool modified oligonucleotide complementary to miR-17 was tested in mouse models of PKD. The anti-miR-17 compound was a fully phosphorothioated oligonucleotide 19 linked nucleosides in length (5′-CTGCACTGTAAGCACTTTG-3′; SEQ ID NO: 7), with DNA, 2′-MOE and S-cEt sugar moieties.\nPcy mice bearing a mutation in Nphp3 spontaneously develop polycystic kidney disease, with a slower progression of disease than that observed in the Pkd2-KO mice. Mice were treated with 50 mg/kg of tool anti-miR-17 compound, or with PBS, once weekly for a total of 26 weeks. The mean ratio of kidney weight to body weight in the Pcy mice treated with anti-miR-17 was 19% lower than the mean ratio of kidney weight to body weight in the Pcy mice administered PBS only (p=0.0003)."}
{"substance": "5′-CTGCACTGTAAGCACTTTG-3′ (all phosphorothioate, sugars by position and methylation of C not given here; DNA, 2'-MOE and S-cEt sugars) [Tool anti-miR-17, reference compound]", "values": [{"measurement": "mean ratio of kidney weight to body weight lower than PBS only", "setting": "p=0.0003", "value": 19, "unit": "%"}, {"measurement": "mean reduction in cyst index compared to PBS only", "setting": "p=0.008", "value": 28, "unit": "%"}]}
